From US11505536B2, “Dihydroorotate dehydrogenase inhibitors” (Janssen Biotech, Inc., priority 2019, dated 2022)

Columns and labels:
[1] = molecular target: human DHODH (Homo sapiens (Human), UniProt Q02127); experiment: DHODH Enzymatic Assay; type: biochemical; conditions: purified human DHODH, DCIP absorbance, end-point mode; read-out: hDHODH IC50
Protocol: The following assay is referred to herein as the “DHODH Enzymatic Assay.” To detect DHODH enzyme activities, dichloroindophenol (DCIP) is added as the final electron acceptor in the assay. DCIP can accept electrons from the reduced coenzyme Q generated in the assay, or from dihydroorotate (DHO) via FMN by binding presumably to the ubiquinone pocket. DCIP solutions are blue, with an intense absorbance around 600 nm, but becomes colorless upon reduction (J. Biol. Chem. (1986) 261, 11386). The assay buffer contained […], pH 7.5, 150 mM NaCl, 0.5 mM EDTA, and 0.1% Triton X-100 in MilliQ water. Substrate consisting of 20 mM DHO, 5 mM CoQ6, and 1 mM DCIP in assay buffer, initiates the reaction. The assay is run in end-point mode by quenching the reaction with the potent DHODH inhibitor brequinar. Absorbance measurements were obtained using the BMG Phera Star plate-reading spectrophotomer. Purified human DHODH was purchased from Proteros (cat. No. PR-0044). Chemicals were purchased from Sigma-Aldrich, Teknova, and Avanti Polar Lipids. Liquid handling was performed using Labcyte Echo and Formulatrix Tempest.

[2] = tested on: MOLM-13 cells (human acute myeloid leukemia cells); experiment: MOLM-13 Cellular Assay; type: cell-based; conditions: Homo sapiens, MOLM-13, 72 h, 72 hours exposure, cell viability by CellTiter-Glo
Protocol: The following assay is referred to herein as the “MOLM-13 Cellular Assay.” MOLM-13 cells (human acute myeloid leukemia cells) were obtained from DSMZ and were maintained in RPMI 1640+Glutamax+25 mM HEPES (Invitrogen, catalog number 72400) supplemented with 10% heat inactivated fetal bovine serum (FBS; Invitrogen, catalog number 16140). The day prior to assay set-up, cells were pelleted, resuspended in fresh media, counted, and cells were plated at 0.4×10^6 cell/mL in a T150 flask. On the day of the assay, cells were pelleted, resuspend in fresh media, counted and seeded at 5,000 cells/well in white opaque 96-well tissue culture treated microplates (Perkin Elmer, catalog number 6005680). Cells were exposed to different concentrations of test compounds at 37° C., 5% CO2 for 72 hours immediately after seeding. Cell viability was acquired on a Perkin Elmer Envision 2104 multilabel reader using the CellTiter-Glo assay (Promega) according to the manufacturer's instructions.

human DHODH, sequence (Q02127 whole entry): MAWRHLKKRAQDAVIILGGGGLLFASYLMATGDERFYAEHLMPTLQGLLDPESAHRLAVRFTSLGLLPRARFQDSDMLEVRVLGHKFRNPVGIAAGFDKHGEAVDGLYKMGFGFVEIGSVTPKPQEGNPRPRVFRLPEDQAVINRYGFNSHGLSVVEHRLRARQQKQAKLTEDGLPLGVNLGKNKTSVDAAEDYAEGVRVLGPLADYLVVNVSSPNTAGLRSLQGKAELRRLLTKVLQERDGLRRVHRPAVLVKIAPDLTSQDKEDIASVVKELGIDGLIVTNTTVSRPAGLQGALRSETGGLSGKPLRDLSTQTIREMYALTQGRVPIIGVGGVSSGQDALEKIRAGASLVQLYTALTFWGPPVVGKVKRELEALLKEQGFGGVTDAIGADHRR

| SMILES | IC50 [1] | IC50 [2] |
| --- | --- | --- |
| CCC(C)c1cn(-c2c(F)cccc2Cl)c(=O)c2cc(F)c(-n3nc(CO)n(CC)c3=O)cc12 (racemic) [Example 48, Racemic-4-(sec-Butyl)-2-(2-chloro-6-fluorophenyl)-6-(4-ethyl-3-(hydroxymethyl)-5-oxo-4,5-dihydro-1H-1,2,4-triazol-1-yl)-7-fluoroisoquinolin-1(2H)-one] | 0.907 nM | 0.6 nM |
| CCn1c(CO)nn(-c2cc3c(C(C)C(F)(F)F)nn(-c4ccccc4C)c(=O)c3cc2F)c1=O (racemic) [Example 55, Racemic 6-(4-Ethyl-3-(hydroxymethyl)-5-oxo-4,5-dihydro-1H-1,2,4-triazol-1-yl)-7-fluoro-2-(o-tolyl)-4-(1,1,1-trifluoropropan-2-yl)phthalazin-1(2H)-one] | 1.2 nM | 0.5 nM |
| CCn1c(CO)nn(-c2cc3c(C(C)C(F)(F)F)cn(-c4ccccc4C)c(=O)c3cc2F)c1=O (racemic) [Example 88, Racemic-6-(4-Ethyl-3-(hydroxymethyl)-5-oxo-4,5-dihydro-1H-1,2,4-triazol-1-yl)-7-fluoro-2-(o-tolyl)-4-(1,1,1-trifluoropropan-2-yl)isoquinolin-1(2H)-one] | 0.52 nM | 0.9 nM |
| CCn1c(CO)nn(-c2cc3c([C@H](C)C(F)(F)F)nn(-c4ccccc4C)c(=O)c3cc2F)c1=O (single isomer, unassigned) [Example 56, (S*)-6-(4-Ethyl-3-(hydroxymethyl)-5-oxo-4,5-dihydro-1H-1,2,4-triazol-1-yl)-7-fluoro-2-(o-tolyl)-4-(1,1,1-trifluoropropan-2-yl)phthalazin-1(2H)-one] | 2.31 nM | 2 nM |
| CCn1c(CO)nn(-c2cc3c([C@@H](C)C(F)(F)F)nn(-c4ccccc4C)c(=O)c3cc2F)c1=O (single isomer, unassigned) [Example 57, (R*)-6-(4-Ethyl-3-(hydroxymethyl)-5-oxo-4,5-dihydro-1H-1,2,4-triazol-1-yl)-7-fluoro-2-(o-tolyl)-4-(1,1,1-trifluoropropan-2-yl)phthalazin-1(2H)-one] | 1.15 nM | 1 nM |
| CCn1c(CO)nn(-c2ccc3c(=O)n(-c4cccc(F)c4)cc(C(C)(C)O)c3c2)c1=O [Example 25, 6-(4-Ethyl-3-(hydroxymethyl)-5-oxo-4,5-dihydro-1H-1,2,4-triazol-1-yl)-2-(3-fluorophenyl)-4-(2-hydroxypropan-2-yl)isoquinolin-1(2H)-one] | 4260 nM |  |
| C=C(C)c1nn(-c2c(F)cccc2Cl)c(=O)c2cc(F)c(-n3nc(CO)n(CC)c3=O)cc12 [Example 27, 2-(2-Chloro-6-fluorophenyl)-6-(4-ethyl-3-(hydroxymethyl)-5-oxo-4,5-dihydro-1H-1,2,4-triazol-1-yl)-7-fluoro-4-(prop-1-en-2-yl)phthalazin-1(2H)-one] | 0.32 nM |  |
| C=C(C)c1nn(-c2c(F)cccc2Cl)c(=O)c2cc(-n3nc(CO)n(CC)c3=O)c(F)cc12 [Example 28, 2-(2-Chloro-6-fluorophenyl)-7-(4-ethyl-3-(hydroxymethyl)-5-oxo-4,5-dihydro-1H-1,2,4-triazol-1-yl)-6-fluoro-4-(prop-1-en-2-yl)phthalazin-1(2H)-one] | 5.03 nM |  |
| C=C(C)c1nn(-c2c(F)cccc2Cl)c(=O)c2cc(OC)c(-n3nc(CO)n(CC)c3=O)cc12 [Example 29, 2-(2-Chloro-6-fluorophenyl)-6-(4-ethyl-3-(hydroxymethyl)-5-oxo-4,5-dihydro-1H-1,2,4-triazol-1-yl)-7-methoxy-4-(prop-1-en-2-yl)phthalazin-1(2H)-one] | 82.6 nM |  |
| C=C(C)c1nn(-c2c(F)cccc2Cl)c(=O)c2cc(-n3nc(CO)n(CC)c3=O)c(OC)cc12 [Example 30, 2-(2-Chloro-6-fluorophenyl)-7-(4-ethyl-3-(hydroxymethyl)-5-oxo-4,5-dihydro-1H-1,2,4-triazol-1-yl)-6-methoxy-4-(prop-1-en-2-yl)phthalazin-1(2H)-one] | 3480 nM |  |
| C=C(C)c1cn(-c2cc(F)ccc2C)c(=O)c2cc(F)c(-n3nc(CO)n(CC)c3=O)cc12 [Example 82, 6-(4-Ethyl-3-(hydroxymethyl)-5-oxo-4,5-dihydro-1H-1,2,4-triazol-1-yl)-7-fluoro-2-(5-fluoro-2-methylphenyl)-4-(prop-1-en-2-yl)isoquinolin-1(2H)-one] | 0.249 nM |  |
| CCn1c(CO)nn(-c2cc3c(C(C)C)cn(-c4cccnc4OC)c(=O)c3cc2F)c1=O [Example 90, 6-(4-Ethyl-3-(hydroxymethyl)-5-oxo-4,5-dihydro-1H-1,2,4-triazol-1-yl)-7-fluoro-4-isopropyl-2-(2-methoxypyridin-3-yl)isoquinolin-1(2H)-one] | 20.7 nM |  |
| CCn1c(CO)nn(-c2nc3c(C(C)C)cn(-c4ccccc4C(F)(F)F)c(=O)c3cc2F)c1=O [Example 133, 2-(4-Ethyl-3-(hydroxymethyl)-5-oxo-4,5-dihydro-1H-1,2,4-triazol-1-yl)-3-fluoro-8-isopropyl-6-(2-(trifluoromethyl)phenyl)-1,6-naphthyridin-5(6H)-one] |  | 2 nM |

Results, then the compound that gave them:

| IC50 [1] | IC50 [2] | SMILES |
| --- | --- | --- |
| 10.1 nM | 10 nM | CCn1c(CO)nn(-c2cc3c(C(C)C)cn([C@H]4CC[C@@H](OC)C4)c(=O)c3cc2F)c1=O (racemic) [Example 119, Racemic 6-(4-Ethyl-3-(hydroxymethyl)-5-oxo-4,5-dihydro-1H-1,2,4-triazol-1-yl)-7-fluoro-4-isopropyl-2-((cis)-3-methoxycyclopentyl)isoquinolin-1(2H)-one] |
| 181 nM | > 100 nM | CCn1c(CO)nn(-c2cc3c(C(C)C)cn([C@H]4CCC[C@@H](OC)C4)c(=O)c3cc2F)c1=O (racemic) [Example 127, Racemic 6-(4-Ethyl-3-(hydroxymethyl)-5-oxo-4,5-dihydro-1H-1,2,4-triazol-1-yl)-7-fluoro-4-isopropyl-2-((cis)-3-methoxycyclohexyl)isoquinolin-1(2H)-one] |
| 1.68 nM | 1 nM | CCn1c(CO)nn(-c2cc3c(C(C)C)cn([C@@H]4CCCC[C@H]4C)c(=O)c3cc2F)c1=O (stereo in doubt) [Example 120, 6-(4-Ethyl-3-(hydroxymethyl)-5-oxo-4,5-dihydro-1H-1,2,4-triazol-1-yl)-7-fluoro-4-isopropyl-2-((1R*,2R*)-2-methylcyclohexyl)isoquinolin-1(2H)-one] |
| 7.41 nM | 4 nM | CCn1c(CO)nn(-c2cc3c(C(C)C)cn([C@H]4CCCC[C@@H]4C)c(=O)c3cc2F)c1=O (stereo in doubt) [Example 121, 6-(4-Ethyl-3-(hydroxymethyl)-5-oxo-4,5-dihydro-1H-1,2,4-triazol-1-yl)-7-fluoro-4-isopropyl-2-((1S*,2S*)-2-methylcyclohexyl)isoquinolin-1(2H)-one] |
| 16.8 nM | 9 nM | CCn1c(CO)nn(-c2cc3c(C(C)C)cn([C@@H]4CCC[C@H]4C)c(=O)c3cc2F)c1=O (stereo in doubt) [Example 123, 6-(4-Ethyl-3-(hydroxymethyl)-5-oxo-4,5-dihydro-1H-1,2,4-triazol-1-yl)-7-fluoro-4-isopropyl-2-((1R*,2R*)-2-methylcyclopentyl)isoquinolin-1(2H)-one] |
| 1.36 nM | 0.9 nM | CCn1c(CO)nn(-c2cc3c(C(C)C)cn([C@H]4CCC[C@@H]4C)c(=O)c3cc2F)c1=O (stereo in doubt) [Example 124, 6-(4-Ethyl-3-(hydroxymethyl)-5-oxo-4,5-dihydro-1H-1,2,4-triazol-1-yl)-7-fluoro-4-isopropyl-2-((1S*,2S*)-2-methylcyclopentyl)isoquinolin-1(2H)-one] |
| 15.5 nM | 6 nM | CCn1c(CO)nn(-c2cc3c(C(C)C)cn([C@@H]4CCC[C@@H]4C)c(=O)c3cc2F)c1=O (stereo in doubt) [Example 125, 6-(4-Ethyl-3-(hydroxymethyl)-5-oxo-4,5-dihydro-1H-1,2,4-triazol-1-yl)-7-fluoro-4-isopropyl-2((1R*,2S*)-2-methylcyclopentyl)isoquinolin-1(2H)-one] |
|  | 0.3 nM | CCn1c(CO)nn(-c2cc3c(C(C)C)cn(-c4ccccc4Cl)c(=O)c3cc2F)c1=O [Example 117, 2-(2-Chlorophenyl)-6-(4-ethyl-3-(hydroxymethyl)-5-oxo-4,5-dihydro-1H-1,2,4-triazol-1-yl)-7-fluoro-4-isopropylisoquinolin-1(2H)-one] |
|  | 8 nM | CCn1c(CO)nn(-c2cc3c(C(C)C)cn(-c4nc(C)ccc4C)c(=O)c3cc2F)c1=O [Example 134, 2-(3,6-Dimethylpyridin-2-yl)-6-(4-ethyl-3-(hydroxymethyl)-5-oxo-4,5-dihydro-1H-1,2,4-triazol-1-yl)-7-fluoro-4-isopropylisoquinolin-1(2H)-one] |
